In publication PMC10892093 (Pharmaceutics, 2024):
Read-outs that look alike come from different tables or passages of the source.

Assays:
[1] = system: human liver microsomes (HLM); test: Inhibition of R- and S-oxazepam glucuronidation in human liver microsomes
Procedure: (§1) A Waters Corp BEH C18 Acquity UPLC column (1.7 µM, 2.1 × 100 mm) was used at a constant temperature of 40 °C for chromatographic separation. An elution gradient was used for 6.5 min with mobile phases A (5 mM ammonium formate) and B (100% methanol) under the following conditions: 90% A for 0.5 min, followed by a linear gradient for 3 min to 60% A, 1 min at 5% A, and re-equilibration for 1 min at 90% A.
(§2) The reaction was initiated by the addition of 4 mM UDPGA as the cofactor and incubated for 2 h at 37 °C. The reaction was terminated by adding 30 µL of an ice-cold stop solution (acetonitrile/methanol; 1:1). The reaction mixtures were centrifuged at 17,000× g for 30 min at 4 °C, and the supernatant was transferred to UPLC sample glass vial for analysis using UPLC–MS/MS (described above). […] As a positive control for inhibition assays, ketoconazole (10 μM and 100 µM) was used as a potential inhibitor of the UGTs 1A9, 2B7, and 2B15. Reactions containing only the cannabinoid vehicle (3% methanol) and without any inhibitor (cannabinoids) were used as a baseline reaction for 100% enzyme activity, while a reaction without UDPGA was used as a negative control. All experiments were performed in three independent experiments.
(§3) Determination of IC50 and Ki Values. […] The nonspecific binding constants (fu,inc) for cannabinoids in HEK293 microsomes, HLM, and HKM were previously determined and used to calculate the inhibition by unbound (‘free’) cannabinoid in each reaction. A nonlinear regression analysis and the following equation were used to calculate the IC50 values:(1) y = Bottom +Top − Bottom / 1 + 10^x − LogIC50A where ‘Bottom’ is the maximum observed inhibition (lowest percent activity) and ‘Top’ is the minimum observed inhibition (highest percent activity) for a given cannabinoid.
The inhibition constant (Ki) was generated from the in vitro IC50 values assuming competitive inhibition (based on the Cheng–Prusoff equation; [49]). Considering that there have been no reports of the irreversible inhibition (e.g., mechanism-based inhibition) of UGTs, competitive inhibition was assumed as the worst-case scenario (highest inhibition) among all feasible types of reversible inhibitions. The substrate concentration used in the incubations was below the reported Km; therefore, the Ki values were predicted using Equation (2):(2) Ki=IC50/S/Km+1 where Km is Michaelis–Menten constant for the substrate, S is the substrate concentration, and IC50 is half-maximal inhibitory concentration.

UGT2B15 = biological target: T1, UGT2B15 (Homo sapiens, UniProt P54855); test: Inhibition of S-oxazepam glucuronidation in rUGT2B15 homogenate/microsomes (UGT-overexpressing HEK293); format: biochemical; settings: for IC50: rUGT2B15
T1 construct: expressed in transfected cells; cell homogenate
T1 sequence (P54855 24-530): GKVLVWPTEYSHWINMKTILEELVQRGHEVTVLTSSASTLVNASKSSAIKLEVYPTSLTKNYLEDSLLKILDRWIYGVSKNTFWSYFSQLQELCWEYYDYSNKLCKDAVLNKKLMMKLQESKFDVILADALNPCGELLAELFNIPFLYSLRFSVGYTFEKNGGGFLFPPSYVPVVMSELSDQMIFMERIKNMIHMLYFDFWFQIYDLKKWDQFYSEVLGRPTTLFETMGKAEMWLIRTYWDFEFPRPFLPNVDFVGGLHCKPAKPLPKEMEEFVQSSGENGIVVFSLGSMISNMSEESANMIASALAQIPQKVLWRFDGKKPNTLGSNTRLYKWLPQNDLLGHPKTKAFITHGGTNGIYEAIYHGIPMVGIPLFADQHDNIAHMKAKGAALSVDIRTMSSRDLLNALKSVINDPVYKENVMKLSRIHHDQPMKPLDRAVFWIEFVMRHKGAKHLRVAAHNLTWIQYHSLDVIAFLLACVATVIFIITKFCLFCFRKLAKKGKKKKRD
Procedure: (§4) Human embryonic kidney cells (HEK293) stably overexpressing the single UGTs 1A9, 2B7, and 2B15 have been previously established and described. Cells were grown in DMEM supplemented with 350 μg/mL of geneticin and 10% FBS and harvested in PBS. Microsomal fractions of UGT-overexpressing cell lines were prepared by differential centrifugation using previously described protocols. Briefly, cell homogenates were prepared by resuspending pelleted cells in PBS, followed by five rounds of freeze–thaw cycles prior to homogenization. Recombinant microsomes (rUGTs) were prepared by centrifuging the cell homogenate at a low speed (9000× g for 30 min) followed by ultracentrifugation (34,000× g for 60 min), with the total protein subsequently determined using a BCA assay. Recombinant microsomes (UGT1A9 and 2B7) and homogenates (UGT2B15) were used for inhibition studies.
as §1, §2, §3

UGT2B7 = biological target: T2, UGT2B7 (Homo sapiens, UniProt P16662); test: Inhibition of R- and S-oxazepam glucuronidation in rUGT2B7 microsomes (UGT-overexpressing HEK293); format: biochemical; settings: for IC50: rUGT2B7; for inhibition at 2 h, 100 µM: human, pH 7.4, rUGT2B7 microsomes
T2 construct: expressed in transfected cells; microsomal fraction
T2 sequence (P16662 24-529): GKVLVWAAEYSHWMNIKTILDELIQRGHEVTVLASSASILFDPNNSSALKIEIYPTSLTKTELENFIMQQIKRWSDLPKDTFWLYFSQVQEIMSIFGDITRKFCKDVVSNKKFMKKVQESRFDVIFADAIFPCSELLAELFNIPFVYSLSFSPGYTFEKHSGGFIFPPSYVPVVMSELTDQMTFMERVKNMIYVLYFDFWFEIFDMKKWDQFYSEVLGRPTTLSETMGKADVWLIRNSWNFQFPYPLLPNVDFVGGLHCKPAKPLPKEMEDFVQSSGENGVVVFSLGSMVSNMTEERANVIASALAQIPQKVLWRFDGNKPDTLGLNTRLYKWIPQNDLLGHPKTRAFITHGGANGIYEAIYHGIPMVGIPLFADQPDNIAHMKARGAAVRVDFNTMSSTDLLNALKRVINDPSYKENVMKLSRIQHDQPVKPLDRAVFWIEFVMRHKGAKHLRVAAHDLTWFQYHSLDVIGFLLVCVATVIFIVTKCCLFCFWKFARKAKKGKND
Procedure: as §4, §1, §2, §3

[2] = cited from earlier work
[3] = read-out: IC50, R-Oxazepam Glucuronide
[4] = read-out: IC50, S-Oxazepam Glucuronide
[5] = read-out: IC50,u, R-Oxazepam Glucuronide, IC50 corrected with fu,inc
[6] = read-out: Ki, R-Oxazepam Glucuronide, generated from IC50 assuming competitive inhibition
[7] = read-out: Ki, S-Oxazepam Glucuronide, generated from IC50 assuming competitive inhibition
[8] = read-out: Ki,u, R-Oxazepam Glucuronide, Ki corrected with fu,inc
[9] = read-out: Ki,u, S-Oxazepam Glucuronide, Ki corrected with fu,inc
[10] = IC50 corrected with fu,inc, read-out: IC50,u, S-Oxazepam Glucuronide
[11] = rUGT2B7 microsomes, 100 µM cannabinoid
[12] = overexpressing HEK293 cell lines

Compound	IC50 [1, 3]	IC50 [1, 4]	IC50 [1, 5]	Ki [1, 6]	Ki [1, 7]	Ki [1, 8]	Ki [1, 9]	IC50 (UGT2B15; [10])	IC50 (UGT2B15; [4])	Inhibition of R-oxazepam glucuronidation (UGT2B7; [11])	unbound fraction (fu,inc) ([2]; incubation mixtures with HKM)	unbound fraction (fu,inc) ([2]; incubation mixtures with HLM)	unbound fraction (fu,inc) [2, 12]	also measured
11-hydroxy-Δ^9-tetrahydrocannabinol [11-OH-THC]	18 ± 5 µM	41 ± 25 µM	1.7 ± 0.47 µM	18 ± 4.9 µM	34 ± 21 µM	1.7 ± 0.46 µM	3.2 ± 2 µM	4.5 ± 2.1 µM	58 ± 27 µM	80%	0.094 ± 0.014	0.094 ± 0.014	0.078 ± 0.042	IC50 ([1]; read-out: IC50,u, S-Oxazepam Glucuronide, IC50 corrected with fu,inc): 3.9 ± 2.4 µM; IC50 (UGT2B7; IC50 corrected with fu,inc, read-out: IC50,u, R-Oxazepam Glucuronide): 0.77 ± 0.64 µM; IC50 (UGT2B7; [10]): 0.53 ± 0.26 µM; IC50 (UGT2B7; [3]): 9.9 ± 8.2 µM; IC50 (UGT2B7; [4]): 6.8 ± 3.3 µM; Inhibition of S-oxazepam glucuronidation (UGT2B7; [11]): 81%
CCCCCc1cc(O)c2c(c1)OC(C)(C)[C@@H]1CCC(C)=C[C@@H]21 [THC, Δ^9-tetrahydrocannabinol]	34 ± 16 µM	> 100 µM	1.6 ± 0.77 µM	33 ± 15 µM	> 83 µM	1.6 ± 0.74 µM	> 3.2 µM	0.84 ± 0.42 µM	20 ± 10 µM	50%	0.052 ± 0.005	0.048 ± 0.002	0.042 ± 0.003	–
C=C(C)[C@@H]1CCC(C)=C[C@H]1c1c(O)cc(CCCCC)cc1O [CBD, cannabidiol]	–	–	–	16 ± 7.4 µM	72 ± 32 µM	0.82 ± 0.38 µM	3.7 ± 1.6 µM	2 ± 0.35 µM	54 ± 9 µM	–	0.062 ± 0.009	0.051 ± 0.008	0.038 ± 0.002	inhibition at 2 h, 10 µM (UGT2B15; human, pH 7.4, rUGT2B15 microsomes, 10 µM cannabinoid, range over the four cannabinoids, read-out: Inhibition of S-oxazepam glucuronide formation): 40 to 66%; inhibition at 2 h, 100 µM (UGT2B15; human, pH 7.4, rUGT2B15 microsomes, 100 µM cannabinoid, range over the four cannabinoids, read-out: Inhibition of S-oxazepam glucuronide formation): 83 to 91%; inhibition at 2 h, 100 µM (UGT2B7; 100 µM cannabinoid, read-out: Inhibition of R-oxazepam glucuronidation): 95%; inhibition at 2 h, 100 µM (UGT2B7; 100 µM cannabinoid, read-out: Inhibition of S-oxazepam glucuronidation): 89%
